Data taken from patent publication US20240368351A1, “FACTORS CONTROLLING DRUG RELEASE IN CROSS-LINKED POLY(VALEROLACTONE) BASED MATRICES” (Pendant Biosciences, Inc., priority 2019, published 2024).
Values after ≈ are worked out from the molar mass of the structure shown. One block for each compound: values may come before it.

Assays:
[1] = In vitro drug release from cross-linked matrices (CPs), sample-and-separate, with mathematical modeling (Fick diffusion); type: physicochemical; conditions: for cumulative release from the drug-loaded crosslinked copolymer: embodiment statement
Protocol: Evaluation of in vitro drug release: impact of the nature of the drug, polymer and release media: In the in vitro release studies the impact of a number of variables was evaluated including nature of the drug, compatibility between the drug and the polymer matrix, degree of crystallinity of the matrix, M.W. of the copolymer, cross-linking density and the composition of the release media. The commonly used, sample-and-separate method was employed to evaluate drug release from the cross-linked matrices. D'Souza, S. S.; DeLuca, P. P. Methods to Assess in vitro Drug Release from Injectable Polymeric Particulate Systems. Pharmaceutical Research 2006, 23, 3, 460-474.
The Peppas-Sahlin model, where diffusion and polymer relaxation are known to be the underlying drivers of drug release provided the best fit in terms of R^2adjusted (FIGS. 8A and 8C) For cylindrical shaped matrices, Fickian diffusion is considered to be operative when the ratio of diameter to thickness (n or m) of the matrix is equal to or less than 0.45. If the value is […], the drug release mechanism is considered non-Fickian; whereas, if n is 0.89 drug release is considered to be case II transport. Herein, the dimension and the geometry of the matrices evaluated have a value of 0.78<n<0.80. […]
Protocols for drug analysis by HPLC and cytotoxicity evaluation of the cross-linked matrices: The drug release was analyzed by reverse phase HPLC using an Agilent 1200 HPLC system with Agilent ChemStation software, an XDB C18 column (150×4.6 mm i.d+guard column) and UV detection. […] Drug concentrations were quantified using calibration curves using standards that ranged in concentration from 1 to 100 μg/ml (0.9986≤R^2≤1).
The CPs were incubated at 37° C. under constant stirring and at pre-determined time points, a 1 ml aliquout was removed and replaced with 1 mL of fresh media and the samples were immediately frozen at −20° C. for storage prior to HPLC analysis. […] The drug was reconstituted in 1 ml of the HPLC mobile phase and analyzed to correct the DLC and release curves. […]

[2] = Drug solubility in different release media (PBS with Tween 80 or SDS); type: physicochemical; conditions: for solubility at 48 h: release media (PBS with Tween 80 or SDS), 37 °C, pH 7.4, aqueous with cosolvent or surfactant or cyclodextrin, thermodynamic from solid
Protocol: Mikkelsen, L. M., Enzyme solubility in liquid detergent and use of detergent composition. […] Crotts, G.; Park, T. G. Protein delivery from poly(lactic-co-glycolic acid) biodegradable microspheres: Release kinetics and stability issues. […] FDA.
The solutions were centrifuged at 8000 rpm for 10 minutes, and a 1 ml aliquot was withdrawn, filtered through a 0.45 μm nylon membrane, and analyzed by HPLC.

[3] = logP (octanol-water partition) by shake tube method; type: physicochemical
[4] = Stability of Drug X freebase in PBS with or without SDS by HPLC; type: physicochemical
Description: The appearance of second peak correlates with concentration of the drug.

[5] = Solubility of Drug X in organic solvents and water; type: physicochemical
[6] = cited from earlier work
[7] = PBS with SDS, 120 μg/ml, 2 days
[8] = PBS with SDS, 120 μg/ml, 3 days
[9] = PBS with SDS, 120 μg/ml, 4 days

- period of release ([1]; from all matrices, PBS with 0.5% SDS, 37° C.): less than a week
SMILES: CC(=O)Nc1ccc(O)cc1 [Acetaminophen, acetaminophen]

SMILES: COc1cc(/C=C/C(=O)CC(=O)/C=C/c2ccc(O)c(OC)c2)ccc1O [Curcumin, curcumin]
- solubility at 48 h [2]: 45.6 ± 1.05 µg/mL (≈ 124 µM)
- Calculated LogP [3]: 3

SMILES: CC(C)OC(=O)[C@H](C)N[P@](=O)(CO[C@H](C)Cn1cnc2c(N)ncnc21)Oc1ccccc1 [Drug X freebase]
- area of the HPLC peak corresponding to Drug X freebase as a function of time ([4]; PBS with 0.5% SDS): constantly decreased as a function of time
- Area (Drug X freebase peak) ([4]; PBS with SDS, 12 μg/ml, 1 hr): 191.5
- Area (Drug X freebase peak) ([4]; PBS with SDS, 12 μg/ml, 3 hrs): 185.7
- Area (Drug X freebase peak) ([4]; PBS with SDS, 12 μg/ml, 7 hrs): 182.8
- Area (Drug X freebase peak) ([4]; PBS with SDS, 12 μg/ml, 1 day): 179.2
- Area (Drug X freebase peak) ([4]; PBS with SDS, 12 μg/ml, 2 days): 178.7
- Area (Drug X freebase peak) ([4]; PBS with SDS, 12 μg/ml, 3 days): 155.2
- Area (Drug X freebase peak) ([4]; PBS with SDS, 12 μg/ml, 4 days): 155.8
- Area (Drug X freebase peak) ([4]; PBS with SDS, 12 μg/ml, T = 0): 192.6
- Area (2nd) second peak ([4]; PBS with SDS, 60 μg/ml, 1 hr): (99.6)
- Area (Drug X freebase peak) ([4]; PBS with SDS, 60 μg/ml, 1 hr): 934.7
- Area (2nd) second peak ([4]; PBS with SDS, 60 μg/ml, 3 hrs): (85.18)
- Area (Drug X freebase peak) ([4]; PBS with SDS, 60 μg/ml, 3 hrs): 909.05
- Area (2nd) second peak ([4]; PBS with SDS, 60 μg/ml, 7 hrs): (95.5)
- Area (Drug X freebase peak) ([4]; PBS with SDS, 60 μg/ml, 7 hrs): 906.7
- Area (2nd) second peak ([4]; PBS with SDS, 60 μg/ml, 1 day): (87.6)
- Area (Drug X freebase peak) ([4]; PBS with SDS, 60 μg/ml, 1 day): 867.8
- Area (2nd) second peak ([4]; PBS with SDS, 60 μg/ml, 2 days): (77.0)
- Area (Drug X freebase peak) ([4]; PBS with SDS, 60 μg/ml, 2 days): 783.7
- Area (2nd) second peak ([4]; PBS with SDS, 60 μg/ml, 3 days): (72.3)
- Area (Drug X freebase peak) ([4]; PBS with SDS, 60 μg/ml, 3 days): 712.2
- Area (2nd) second peak ([4]; PBS with SDS, 60 μg/ml, 4 days): (68.1)
- Area (Drug X freebase peak) ([4]; PBS with SDS, 60 μg/ml, 4 days): 677.3
- Area (2nd) second peak ([4]; PBS with SDS, 60 μg/ml, T = 0): (73.9)
- Area (Drug X freebase peak) ([4]; PBS with SDS, 60 μg/ml, T = 0): 929.6
- Area (2nd) second peak ([4]; PBS with SDS, 120 μg/ml, 1 hr): (223.0)
- Area (Drug X freebase peak) ([4]; PBS with SDS, 120 μg/ml, 1 hr): 1768.4
- Area (2nd) second peak ([4]; PBS with SDS, 120 μg/ml, 3 hrs): (219.47)
- Area (Drug X freebase peak) ([4]; PBS with SDS, 120 μg/ml, 3 hrs): 1764.9
- Area (2nd) second peak ([4]; PBS with SDS, 120 μg/ml, 7 hrs): (212.8)
- Area (Drug X freebase peak) ([4]; PBS with SDS, 120 μg/ml, 7 hrs): 1707.5
- Area (2nd) second peak ([4]; PBS with SDS, 120 μg/ml, 1 day): (189.8)
- Area (Drug X freebase peak) ([4]; PBS with SDS, 120 μg/ml, 1 day): 1613.5
- Area (2nd) second peak [4, 7]: (193.9)
- Area (Drug X freebase peak) [4, 7]: 1539.2
- Area (2nd) second peak [4, 8]: (167.5)
- Area (Drug X freebase peak) [4, 8]: 1401.2
- Area (2nd) second peak [4, 9]: (160.3)
- Area (Drug X freebase peak) [4, 9]: 1318.3
- Area (2nd) second peak ([4]; PBS with SDS, 120 μg/ml, T = 0): (218.0)
- Area (Drug X freebase peak) ([4]; PBS with SDS, 120 μg/ml, T = 0): 1849.3
- HPLC peak corresponding to Drug X free base as a function of time ([4]; PBS without SDS, regardless of concentration): constantly decreasing as a function of time
- Area (Drug X freebase peak) ([4]; Table 47, PBS with SDS, 12 μg/ml, 1 hr): 164.51
- Area (Drug X freebase peak) ([4]; Table 47, PBS with SDS, 12 μg/ml, 3 hrs): 162.2
- Area (Drug X freebase peak) ([4]; Table 47, PBS with SDS, 12 μg/ml, 7 hrs): 161.0
- Area (Drug X freebase peak) ([4]; Table 47, PBS with SDS, 12 μg/ml, 1 day): 132.2
- Area (Drug X freebase peak) ([4]; Table 47, PBS with SDS, 12 μg/ml, 2 days): 103.6
- Area (Drug X freebase peak) ([4]; Table 47, PBS with SDS, 12 μg/ml, 3 days): 84.2
- Area (Drug X freebase peak) ([4]; Table 47, PBS with SDS, 12 μg/ml, 4 days): 57.5
- Area (Drug X freebase peak) ([4]; Table 47, PBS with SDS, 12 μg/ml, T = 0): 169.2
- Area (Drug X freebase peak) ([4]; Table 47, PBS with SDS, 60 μg/ml, 1 hr): 897.8
- Area (Drug X freebase peak) ([4]; Table 47, PBS with SDS, 60 μg/ml, 3 hrs): 875.2
- Area (Drug X freebase peak) ([4]; Table 47, PBS with SDS, 60 μg/ml, 7 hrs): 850.6
- Area (Drug X freebase peak) ([4]; Table 47, PBS with SDS, 60 μg/ml, 1 day): 663.9
- Area (Drug X freebase peak) ([4]; Table 47, PBS with SDS, 60 μg/ml, 2 days): 511.8
- Area (Drug X freebase peak) ([4]; Table 47, PBS with SDS, 60 μg/ml, 3 days): 361.7
- Area (Drug X freebase peak) ([4]; Table 47, PBS with SDS, 60 μg/ml, 4 days): 303.9
- Area (Drug X freebase peak) ([4]; Table 47, PBS with SDS, 60 μg/ml, T = 0): 903.4
- Area (Drug X freebase peak) ([4]; Table 47, PBS with SDS, 120 μg/ml, 1 hr): 1797.8
- Area (Drug X freebase peak) ([4]; Table 47, PBS with SDS, 120 μg/ml, 3 hrs): 1790.0
- Area (Drug X freebase peak) ([4]; Table 47, PBS with SDS, 120 μg/ml, 7 hrs): 1687.7
- Area (Drug X freebase peak) ([4]; Table 47, PBS with SDS, 120 μg/ml, 1 day): 1319.2
- Area (Drug X freebase peak) ([4]; Table 47, PBS with SDS, 120 μg/ml, 2 days): 1023.1
- Area (Drug X freebase peak) ([4]; Table 47, PBS with SDS, 120 μg/ml, 3 days): 722.9
- Area (Drug X freebase peak) ([4]; Table 47, PBS with SDS, 120 μg/ml, 4 days): 593.4
- Area (Drug X freebase peak) ([4]; Table 47, PBS with SDS, 120 μg/ml, T = 0): 1841.8
- Solubility EtOH ([5]; 5 mg/100 μl, cell wraps: 'Soluble, and' / 'transparent'): Soluble, and

SMILES: CC(C)OC(=O)[C@H](C)N[P@](=O)(CO[C@H](C)Cn1cnc2c(N)ncnc21)Oc1ccccc1.CC(C)OC(=O)[C@H](C)N[P@](=O)(CO[C@H](C)Cn1cnc2c(N)ncnc21)Oc1ccccc1.O=C(O)/C=C/C(=O)O [Drug X fumarate]
- Solubility in EtOH/DMSO (50/50) ([5]; 5 mg per 100 mL or μL): Soluble, and
- Solubility in DMSO/Water (50/50) ([5]; 5 mg per 200 mL or μL): Insoluble
- Solubility in Water ([5]; 5 mg per 200 mL or μL): Insoluble

- solubility, times greater in 0.5% SDS than in 0.1% SDS ([2]; PBS): 10 times
- solubility, times greater in 0.5% SDS than in 0.1% Tween 80 ([2]; PBS): 50 times
- solubility at 48 h [2]: 106 ± 0.57 µg/mL (≈ 124 µM)
- logP ([3]; read-out: Calculated LogP): 2.7
- cumulative release from the drug-loaded crosslinked copolymer ([1]; after 35 days): about 58 wt %
SMILES: CC(=O)O[C@H]1C(=O)[C@@]2(C)[C@H]([C@H](OC(=O)c3ccccc3)[C@]3(O)C[C@H](OC(=O)[C@H](O)[C@@H](NC(=O)c4ccccc4)c4ccccc4)C(C)=C1C3(C)C)[C@]1(OC(C)=O)CO[C@@H]1C[C@@H]2O [Paclitaxel, paclitaxel]

SMILES: CC1(C)S[C@@H]2[C@H](NC(=O)Cc3ccccc3)C(=O)N2[C@H]1C(=O)O [Penicillin G, reference compound]
- Log P [6]: 1.83
- Water solubility [6]: water (0.21 mg/mL)
- Water solubility (words) [6]: Slightly soluble in
- pKa [6]: 3.96

- solubility at 48 h [2]: 37.9 ± 0.4 µg/mL (≈ 71.1 µM)
- cumulative release from the drug-loaded crosslinked copolymer ([1]; after 34 days): about 42 wt %
SMILES: CC(C)(C)CC(=O)OCC(=O)[C@@]12OC(C)(C)O[C@@H]1C[C@H]1[C@@H]3CCC4=CC(=O)C=C[C@]4(C)[C@@]3(F)[C@@H](O)C[C@@]12C [Triamcinolone hexacetonide, triamcinolone hexacetonide]
